Results as given in patent US6720346B2, “Thiazole benzamide derivatives and pharmaceutical compositions for inhibiting cell proliferation” (Agouron Pharmaceuticals, Inc., priority 2001, dated 2004).
Counter-ions that a name gives are not always drawn.

Tests used:
[1] = target: T1, CDK2/cyclin A (Homo sapiens, UniProt P24941); test: Inhibition of CDK2/cyclin A retinoblastoma kinase activity (Ki; % inhibition); type: biochemical; conditions: for Ki: apparent Ki, CDK2/cyclin A, Rb substrate
T1 construct: made in house; host or cells: CDK2: insect cells (baculovirus); cyclin A: E. coli
In short: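 Radiometric filter assay of CDK2/proteolyzed cyclin A (baculovirus-expressed human CDK2, 10 or 19 nM) phosphorylating an Rb fragment with 25 μM [³²P/³³P]ATP in pH 7.4 HEPES, 2% DMSO, at 30 °C for 60 or 75 min under initial-rate conditions. Library compounds screened at 30 nM for % inhibition; apparent Ki from concentration series fit to competitive or tight-binding inhibition equations.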

[2] = target: T2, human CDK4/cyclin D3 (Homo sapiens, UniProt P11802); test: Inhibition of CDK4/cyclin D retinoblastoma kinase activity (Ki; % inhibition); type: biochemical; conditions: for Ki: apparent Ki, CDK4/cyclin D3, Rb substrate
T2 construct: made in house; host or cells: insect cells co-infected with baculovirus vectors
T2 sequence (P11802 whole entry): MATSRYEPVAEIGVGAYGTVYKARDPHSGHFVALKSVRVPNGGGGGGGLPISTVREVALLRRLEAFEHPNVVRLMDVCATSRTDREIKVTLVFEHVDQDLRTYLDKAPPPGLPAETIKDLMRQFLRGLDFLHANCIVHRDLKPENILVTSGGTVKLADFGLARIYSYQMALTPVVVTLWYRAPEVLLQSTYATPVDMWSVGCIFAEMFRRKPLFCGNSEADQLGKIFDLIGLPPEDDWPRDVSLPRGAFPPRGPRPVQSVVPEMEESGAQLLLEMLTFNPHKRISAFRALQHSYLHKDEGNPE
T2 sequence (P30281 1-264 partner limits assumed): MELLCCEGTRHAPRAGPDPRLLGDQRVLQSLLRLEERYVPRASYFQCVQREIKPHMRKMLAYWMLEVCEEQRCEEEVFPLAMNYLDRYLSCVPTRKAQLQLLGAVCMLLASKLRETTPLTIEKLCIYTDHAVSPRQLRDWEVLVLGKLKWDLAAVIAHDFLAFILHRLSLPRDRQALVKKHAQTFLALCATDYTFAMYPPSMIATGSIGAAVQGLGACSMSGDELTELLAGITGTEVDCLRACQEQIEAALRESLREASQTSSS
In short: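 Insect-cell-expressed CDK4 with truncated cyclin D3 (1-264), 5 nM, phosphorylating His-tagged Rb fragment (386-928) with 25 μM [32/33P]ATP at pH 7.4, 30 °C, 20 min (60 min for tight binders). Filter capture, phosphorimager read; % inhibition at 30 nM compound, Ki from competitive or tight-binding fits.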

[3] = system: HCT-116 cell line; test: Inhibition of cell growth, MTT tetrazolium salt assay; type: cell-based; conditions: for IC50: Homo sapiens, HCT-116, 120 h, MTT, three to five days
In short: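 Cells in McCoy's 5A medium were given 4 h before compound addition in 0.5% (v/v) DMSO, then incubated 3–5 days at 37 °C, 5% CO2. After 4 h with 0.2 mg/mL MTT, DMSO-solubilized formazan was read at 540 nm; 50% and 90% growth-inhibitory concentrations came from semi-log plots against vehicle controls.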

[4] = HCT-116 cells, 0.25 μM compound

Compound | CDK2 % Inhibition at 0.03 μM ([1]; at 0.03 μM) [%] | CDK4 % Inhibition at 0.03 μM ([2]; at 0.03 μM) [%] | CDK2 % Inhibition at 0.03 μM ([1]; 0.03 μM compound) [%] | CDK4 % Inhibition at 0.03 μM ([2]; 0.03 μM compound) [%] | HCT-116 % Inhibition at 0.25 μM ([3]; HCT-116, at 0.25 μM) [%] | HCT-116 % Inhibition at 0.1 μM ([3]; HCT-116 cells, 0.1 μM compound) [%] | HCT-116 % Inhibition at 0.25 μM [3, 4] [%] | further results
COc1ccc(NC(=O)c2ccc(Nc3nc(N)c(C(=O)c4c(F)cccc4F)s3)cc2)cc1Cl [Example G59] | 25 | 3 |  |  | 53 |  |  | 
CCOc1cccc(NC(=O)c2ccc(Nc3nc(N)c(C(=O)c4c(F)cccc4F)s3)cc2)c1 [Example G16] | −7 | 1 |  |  | 50 |  |  | 
Nc1nc(Nc2ccc(C(=O)NCCc3cccc(F)c3)cc2)sc1C(=O)c1c(F)cccc1F [Example G349] |  |  | −6 | 11 |  | 31 | 48 | 
Nc1nc(Nc2ccc(C(=O)NCc3ccc(Cl)c(Cl)c3)cc2)sc1C(=O)c1c(F)cccc1F [Example G336] |  |  | 36 | 36 |  | 12 | 51 | 
CNC(C)(C)CNC(=O)c1ccc(Nc2nc(N)c(C(=O)c3c(F)cccc3F)s2)cc1 [Example A18, 4-{4-Amino-5-[1-(2,6-difluoro-phenyl)-methanoyl]-thiazol-2-ylamino}-N-(2-methyl-2-methylamino-propyl)-benzamide Acetic Acid Salt] |  |  |  |  |  |  |  | Ki [1]: 190 nM; Ki [2]: 6 nM; IC50 [3]: 920 nM
Cc1cc(NC(=O)c2ccc(Nc3nc(N)c(C(=O)c4c(F)cccc4F)s3)cc2)no1 [Example G393] |  |  | 8 | 0 |  | 8 | 46 | 
Nc1nc(Nc2ccc(C(=O)N[C@@H]3CCc4ccccc43)cc2)sc1C(=O)c1c(F)cccc1F [Example G176] | 22 | 21 |  |  | 62 |  |  | HCT-116 % Inhibition at 0.1 μM ([3]; HCT-116, at 0.1 μM): 32%
C[C@@H](CN(C)C)NC(=O)c1ccc(Nc2nc(N)c(C(=O)c3c(F)cccc3F)s2)cc1 [Example A41] |  |  |  |  |  |  |  | Ki [1]: 230 nM; Ki [2]: 35 nM; IC50 [3]: 180 nM
Nc1nc(Nc2ccc(C(=O)NC3Cc4ccccc4C3)cc2)sc1C(=O)c1c(F)cccc1F [Example A22, 4-[4-Amino-5-(2,6-difluoro-benzoyl)-thiazol-2-ylamino]-N-indan-2-yl-benzamide] |  |  |  |  |  |  |  | Ki [1]: 6 nM; Ki [2]: 5 nM; IC50 [3]: 170 nM
Nc1nc(Nc2ccc(C(=O)NCCn3ccnc3)cc2)sc1C(=O)c1c(F)cccc1F [Example A55, 4-[4-Amino-5-(2,6-difluoro-benzoyl)-thiazol-2-ylamino]-N-[2-(imidazol-1-yl)-ethyl]-benzamide Dihydrochloride Salt] |  |  |  |  |  |  |  | Ki [1]: 56 nM; Ki [2]: 17 nM; IC50 [3]: 3200 nM
CC(=O)Nc1ccccc1C(=O)c1sc(Nc2ccc(C(=O)NC[C@@H]3CCCN3C)cc2)nc1N [Example A72, 4-{5-(2-Acetylamino-benzoyl)-4-amino-thiazol-2-ylamino}-N-(1-methyl-pyrrolidin-2S-ylmethyl)-benzamide] |  |  |  |  |  |  |  | inhibition at 1 µM [1]: 0%; inhibition at 1 µM [2]: 0%; IC50 [3]: > 500 nM
Nc1nc(Nc2ccc(C(=O)Nc3ccc4c(c3)OCO4)cc2)sc1C(=O)c1c(F)cccc1F [Example G52] | 10 | 5 |  |  | 65 |  |  | 
Nc1nc(Nc2ccc(C(=O)NCCc3cccc(C(F)(F)F)c3)cc2)sc1C(=O)c1c(F)cccc1F [Example G276] |  |  | 2 | −2 |  | 25 | 58 | 
CN(C)CCCCNC(=O)c1ccc(Nc2nc(N)c(C(=O)c3c(F)cccc3F)s2)cc1 [Example G93] | −4 | 11 |  |  | 58 |  |  | HCT-116 % Inhibition at 0.1 μM ([3]; HCT-116, at 0.1 μM): 26%
C=C(C)CNC(=O)c1ccc(Nc2nc(N)c(C(=O)c3c(F)cccc3F)s2)cc1 [Example G223] |  |  | 14 | 19 |  | 14 | 50 | 
CC(C)(C)c1ccc(CNC(=O)c2ccc(Nc3nc(N)c(C(=O)c4c(F)cccc4F)s3)cc2)cc1 [Example G270] |  |  | 26 | 17 |  | 15 | 45 | 
Nc1nc(Nc2ccc(C(=O)N3CCN(C=O)CC3)cc2)sc1C(=O)c1c(F)cccc1F [Example G78] | 11 | 13 |  |  | 58 |  |  | 
Nc1nc(Nc2ccc(C(=O)NCCCCO)cc2)sc1C(=O)c1c(F)cccc1F [Example G256] |  |  | −12 | 11 |  | 19 | 49 | 
CCC(C)NC(=O)c1ccc(Nc2nc(N)c(C(=O)c3c(F)cccc3F)s2)cc1 (stereo not shown) [Example G148] | 5 | 14 |  |  | 48 |  |  | HCT-116 % Inhibition at 0.1 μM ([3]; HCT-116, at 0.1 μM): 0%
Nc1nc(Nc2ccc(C(=O)NCCc3c[nH]c4ccccc34)cc2)sc1C(=O)c1c(F)cccc1F [Example G271] |  |  | 32 | 27 |  | 8 | 49 | 
CN1CC[C@@H](NC(=O)c2ccc(Nc3nc(N)c(C(=O)c4c(F)cccc4F)s3)cc2)C1 [Example A30, 4-[4-Amino-5-(2,6-difluoro-benzoyl)-thiazol-2-ylamino]-N-(1-methyl-pyrrolidin-3R-yl)-benzamide] |  |  |  |  |  |  |  | Ki [1]: 69 nM; Ki [2]: 7 nM; IC50 [3]: 90 nM
COC(=O)[C@H](C(C)C)N(C)C(=O)c1ccc(Nc2nc(N)c(C(=O)c3c(F)cccc3F)s2)cc1 [Example G77] | 9 | 6 |  |  | 51 |  |  | 
CN(CC1CC1)C(C)(C)CNC(=O)c1ccc(Nc2nc(N)c(C(=O)c3c(F)cccc3F)s2)cc1 [Example A39] |  |  |  |  |  |  |  | Ki [1]: 160 nM; Ki [2]: 11 nM; IC50 [3]: 170 nM
CC(C)C(C)NC(=O)c1ccc(Nc2nc(N)c(C(=O)c3c(F)cccc3F)s2)cc1 (stereo not shown) [Example G89] | −20 | −4 |  |  | 59 |  |  | HCT-116 % Inhibition at 0.1 μM ([3]; HCT-116, at 0.1 μM): 30%
CCOc1ccc(NC(=O)c2ccc(Nc3nc(N)c(C(=O)c4c(F)cccc4F)s3)cc2)cc1 [Example G313] |  |  | 11 | 12 |  | 10 | 57 | 
Nc1nc(Nc2ccc(C(=O)NCCc3ccncc3)cc2)sc1C(=O)c1c(F)cccc1F [Example A29, 4-[4-Amino-5-(2,6-difluoro-benzoyl)-thiazol-2-ylamino]-N-(2-pyridin-4-yl-ethyl)-benzamide] |  |  |  |  |  |  |  | Ki [1]: 52 nM; Ki [2]: 26 nM; IC50 [3]: 220 nM

Further lines, with some results ahead:

CDK2 % Inhibition at 0.03 μM ([1]; at 0.03 μM) [%] | CDK4 % Inhibition at 0.03 μM ([2]; at 0.03 μM) [%] | CDK2 % Inhibition at 0.03 μM ([1]; 0.03 μM compound) [%] | CDK4 % Inhibition at 0.03 μM ([2]; 0.03 μM compound) [%] | Compound | HCT-116 % Inhibition at 0.25 μM ([3]; HCT-116, at 0.25 μM) [%] | HCT-116 % Inhibition at 0.1 μM ([3]; HCT-116 cells, 0.1 μM compound) [%] | HCT-116 % Inhibition at 0.25 μM [3, 4] [%] | further results
 |  | 2 | 24 | CC(C)(CO)CNC(=O)c1ccc(Nc2nc(N)c(C(=O)c3c(F)cccc3F)s2)cc1 [Example G263] |  | 26 | 54 | 
12 | 17 |  |  | CC(=O)N1CCN(C(=O)c2ccc(Nc3nc(N)c(C(=O)c4c(F)cccc4F)s3)cc2)CC1 [Example G65] | 58 |  |  | 
 |  | 17 | 14 | COc1cccc(CNC(=O)c2ccc(Nc3nc(N)c(C(=O)c4c(F)cccc4F)s3)cc2)c1OC [Example G332] |  | 21 | 66 | 
16 | 21 |  |  | CCCC(C)NC(=O)c1ccc(Nc2nc(N)c(C(=O)c3c(F)cccc3F)s2)cc1 (stereo not shown) [Example G163] | 67 |  |  | HCT-116 % Inhibition at 0.1 μM ([3]; HCT-116, at 0.1 μM): 0%
 |  | 19 | 12 | CSCCC(CO)NC(=O)c1ccc(Nc2nc(N)c(C(=O)c3c(F)cccc3F)s2)cc1 (stereo not shown) [Example G386] |  | 28 | 51 | 
15 | 19 |  |  | Nc1nc(Nc2ccc(C(=O)NCCc3ccccn3)cc2)sc1C(=O)c1c(F)cccc1F [Example G140] | 54 |  |  | HCT-116 % Inhibition at 0.1 μM ([3]; HCT-116, at 0.1 μM): 0%
 |  | 15 | 15 | Nc1nc(Nc2ccc(C(=O)Nc3ccccc3CCO)cc2)sc1C(=O)c1c(F)cccc1F [Example G207] |  | 15 | 66 | 
3 | 14 |  |  | C=CCN1CCN(C(=O)c2ccc(Nc3nc(N)c(C(=O)c4c(F)cccc4F)s3)cc2)CC1 [Example G21] | 46 |  |  | 
